Laboratory results: patent publication US7956040B2, “Combination of catechin and quercetin for pharmaceutical or dietary use” (Giuliani International Limited, priority 2000, dated 2011)

What was measured:
[1] = tested on: platelets; test: Production of hydrogen peroxide in DCFH-DA-loaded platelets stimulated with collagen (flow cytometry); format: cell-based, human; settings: for production of hydrogen peroxide caused by collagen: catechin or quercetin alone, scalar concentrations (Cat 50 and 100, Q 10 and 20 μmol/L), 10 and 20 mg of collagen/L; for formation of hydrogen peroxide caused by collagen: each compound alone at the low quantities (catechin 25 μmol/L; quercetin 5 μmol/L)
Experimental: (§1) DCFH-DA was added to the PSEC (final concentration: 40 μmol/L); after 15 minutes of incubation with or without catechin or quercetin, the PSEC were activated with collagen. The reaction was stopped with 2 mmol EGTA/L after 1 min. The samples were analysed in a Coulter XL-MCL flow cytometer (Hialeah, Fla.) equipped with an argon laser (emission 480 nm) set up for measuring the logarithmic diffusion of direct light, which is a measure of the dimensions of the particle; logarithmic diffusion of light at 90°, which is a measure of the granularity of the cell; and green fluorescence (DCF) 510-550 nm. The fluorescence signal generated by the probe was expressed as the stimulation index, i.e. intensity of mean channel fluorescence of the stimulated platelets/intensity of mean channel fluorescence of the unstimulated platelets. Platelet aggregation in vitro was evaluated according to Born. The collagen was used at concentrations of 2-4 mg/L.
Flow cytometry makes use of the properties of DCFH-DA, which diffuses rapidly through the cellular membranes and is then trapped inside the cell through a reaction of deacetylation. In the presence of hydrogen peroxide, this compound is oxidized to dichlorofluorescein (DCF), which is highly fluorescent.

[2] = tested on: platelets; test: Platelet aggregation in vitro caused by collagen (according to Born); format: cell-based, human; settings: for influence on platelet aggregation: 25 μmol of catechin/L or 5 μmol of quercetin/L used on their own; for platelet aggregation caused by collagen: catechin or quercetin alone, two concentrations of collagen (2 and 4 mg/L)
Experimental: as §1, with “The reaction was stopped with 2 mmol EGTA/L after 1 min.” left out

[3] = tested on: platelets; test: Cytosol platelet Ca2+ concentration / calcium mobilization (Fura 2) after collagen; format: cell-based, human; settings: for decrease in calcium mobilization: 4 mg of collagen/L; for mobilization of calcium (percentage change in intracellular calcium concentration): catechin or quercetin alone
Experimental: The concentrations of cytosol platelet Ca^2+ were measured using the fluorescent indicator dye Fura 2, according to Grynkiewicz et al.; the changes in fluorescence were then monitored with a fluorimeter SFM 25 (Kontron, Zurich, Switzerland) set at emission wavelength of 510 nm and excitation wavelength of 340 nm.

[4] = tested on: platelets; test: Platelet adhesion to collagen ([3H]oleic acid-labelled platelets); format: cell-based, human; settings: 50 μmol of collagen/L [sic]
Experimental: The activation of platelets by collagen is a multistage process. Thus, after being attached initially to the platelets via the pathways of the second messenger, collagen stimulates the release of thromboxane and ADP, which are important platelet agonists that induce aggregation. To study the adhesion of the platelets to collagen (50 mg/L) without the interference of aggregation and of the activation induced by all the known agonists released by the platelet granules on stimulation by collagen, the platelets were subjected to preincubation with aspirin, a cyclooxygenase inhibitor, with the ADP removal system phosphocreatine and creatine kinase, and with the fibrinogen-fibronectin antagonist RDGS (13).

[5] = tested on: platelets; test: Platelet function / platelet activation, overall conclusion of the study; format: cell-based, human; settings: individually at 5 μmol of quercetin/L or 20 μmol of catechin/L (so in the source)
[6] = tested on: platelet aggregation; settings: high concentrations, several literature studies; cited from earlier work
[7] = tested on: phospholipase C; test: Activation of phospholipase C: IP3 production in collagen-stimulated platelets; settings: for decrease in IP3 production: 10 mg of collagen/L; for production of [32P]IP3 in platelets stimulated by collagen: catechin or quercetin alone
Experimental: Drug-free human blood obtained from healthy volunteers was coagulated with acid:citrate:dextrose. Platelet-rich plasma was centrifuged at 800×g for 20 min at room temperature and the pellet was suspended in a volume equal to half the initial volume of autologous plasma, low in platelets. The platelet suspensions were incubated for 1 h at 37° C. with 3 μmol of Fura 2/AM per L, 40 μmol DCFH-DA/L, 7.4 GBq (2 Ci) ^32Pi/L, or 3.7 MBq (1 mCi) [^3H]oleic acid/L. The platelets were washed by exclusion chromatography on Sepharose 2B using a Ca^2+-free Tyrodes buffer (134 mmol NaCl/L, 2.9 mmol KCl/L, 0.34 mmol Na2HPO4/L and 2 mmol MgCl2/L) containing 0.2% of bovine serum albumin, 5 mmol glucose/L and 10 mmol HEPES/L, pH 7.35.
The production of 1,3,4-inositol triphosphate (IP3, an indicator of activation of phospholipase C, was analysed 30 s after platelet activation according to Pulcinelli et al. J. Chromatogr. 1992,575:51-5. The collagen was used at a concentration of 10 mg/L, which was the lowest concentration capable of inducing a reproducible response. The platelet suspensions identified with [^3H]oleic acid were used for evaluating platelet adhesion to collagen (50 mg/L) according to Smith and Dangelmaier.

[8] = 100 μmol catechin/L or 20 μmol quercetin/L
[9] = catechin (50 and 100 μmol/L) or quercetin (10 and 20 μmol/L) on their own

Compound	production of hydrogen peroxide caused by collagen [1]	formation of hydrogen peroxide caused by collagen [1]	inhibition of platelet aggregation ([2]; 20 μmol of quercetin/L, 2 mg/L collagen) [%]	inhibition of platelet aggregation ([2]; 20 μmol of quercetin/L, 4 mg/L collagen) [%]	influence on platelet aggregation [2]	platelet aggregation caused by collagen [2]	decrease in calcium mobilization ([3]; 20 μmol of quercetin/L) [%]	mobilization of calcium (percentage change in intracellular calcium concentration) [3]	platelet adhesion to collagen [4, 8]	platelet adhesion to collagen [4, 9]	effect on platelet function [5]	platelet aggregation in vitro [6]	decrease in IP3 production ([7]; 20 μmol of quercetin/L) [%]	production of [32P]IP3 in platelets stimulated by collagen [7]	inhibition of platelet aggregation ([2]; 100 μmol of catechin/L, 2 mg of collagen/L)	inhibition of platelet aggregation ([2]; 100 μmol of catechin/L, 4 mg of collagen/L)	decrease in calcium mobilization ([3]; 100 μmol of catechin/L) [%]	decrease in IP3 production ([7]; 100 μmol of catechin/L) [%]
O=c1c(O)c(-c2ccc(O)c(O)c2)oc2cc(O)cc(O)c12 [quercetin]	inhibited the production of hydrogen peroxide	neither of the two compounds alone at such low quantities is reported to have had any inhibitory effect	50	43	no influence on platelet aggregation	inhibited platelet aggregation	65	inhibited the mobilization of calcium	suppressed significantly	inhibited platelet adhesion to collagen	no effect on platelet function	inhibit platelet aggregation	93	inhibited	–	–	–	–
catechin	inhibited the production of hydrogen peroxide	neither of the two compounds alone at such low quantities is reported to have had any inhibitory effect	–	–	no influence on platelet aggregation	inhibited platelet aggregation	–	inhibited the mobilization of calcium	suppressed significantly	inhibited platelet adhesion to collagen	no effect on platelet function	inhibit platelet aggregation	–	inhibited	≈ 75%	≈ 39%	71	50
Oc1ccc(C=Cc2cc(O)cc(O)c2)cc1 [resveratrol]	–	–	–	–	–	–	–	–	–	–	–	inhibit platelet aggregation	–	–	–	–	–	–
